The record followed here is article PMC5490407, “Chiral Derivatives of Xanthones: Investigation of the Effect of Enantioselectivity on Inhibition of Cyclooxygenases (COX-1 and COX-2) and Binding Interaction with Human Serum Albumin” (Pharmaceuticals, 2017).

Assay [1] addresses T1, HSA (Homo sapiens, UniProt P02768).
T1 construct: purchased Sigma-Aldrich
As to the kind of experiment: Interaction with human serum albumin by fluorescence quenching. As to conditions: for Ymax, maximum percentage of HSA fluorescence quenching / Kd: HSA 2 µM, pH 7.4, 25 °C; for Ymax, maximum percentage of HSA fluorescence quenching / Kd / ∆G Binding: mean ± standard deviation of triplicate runs; for Kd: read-out: Kd, dissociation constant of CDX-HSA; for ∆G Binding: HSA binding. It is filed as binding. How it is done: Evaluation of the binding of CDXs to HSA was based on the quenching of HSA intrinsic fluorescence. Phosphate buffer consisting of 7.5 mM Na2HPO4, 1.5 mM KH2PO4 and 140 mM NaCl (pH 7.4) was used in the preparation of CDX solutions. Solutions of HSA fraction V (Sigma-Aldrich, St. Louis, MO, USA) were prepared in water. Briefly, 500 µL of HSA (fixed final concentration 2 µM), increasing volumes of drug solution (n = 13, 0–200 µM) and phosphate buffer solution (pH 7.4) were mixed to a final volume of 1500 µL. The corresponding blank solutions were identically prepared and analysed in the absence of the drug. Fluorescence emission spectra were recorded in the range of 300–450 nm upon excitation at 295 nm. Excitation spectra were also recorded between 220 and 310 nm with emission set at 330 nm. For individual measurements, excitation and emission wavelength were set at 295 nm and 330 nm, respectively. For each measurement, fluorescence emission was automatically acquired during 180 s (5 nm bandwidth). For all compounds, UV-vis absorption spectra (200–500 nm) were recorded. These measurements were used to correct the fluorescence intensity values due to inner filter effects at the excitation wavelength. All experiments were performed at room temperature (25 ± 1 °C). Fluorescence and absorbance measurement were performed in a LS-50B spectrometer (Perkin Elmer, Waltham, MA, USA) and a V-660 spectrophotometer (Jasco, Easton, MD, USA) respectively.
HSA-CDX binding parameters were calculated using the Origin 8.5.1 software (8.5.1, Northampton, MA, USA). The fitting of the experimental values was made according to the Langmuir binding equation (Equation (1)) to calculate HSA binding parameters: (1) [HSA−CDX]=[HSA]/1+ Kd/[CDX] where [HSA], [CDX] and [HSA-CDX] are given in μM and Kd corresponds to the dissociation constant of HSA-CDX complexes.
In terms of fluorescence quenching mediated by the compound, the previous Langmuir isotherm can be rewritten as follows (Equation (2)):(2) %quenching=ymax^n/1+ Kd/[CDX] where ymax corresponds to the highest percentage of quenching induced by a given compound and n accounts for the number of biding sites of the enzyme to the CDX. Finally, free Gibbs energy (ΔG) was also determined for all the interactions.

In assay [2] the target is T2, COX-2 (Homo sapiens, UniProt P35354).
T2 construct: purchased Cayman Chemical
T2 sequence (P35354 18-604): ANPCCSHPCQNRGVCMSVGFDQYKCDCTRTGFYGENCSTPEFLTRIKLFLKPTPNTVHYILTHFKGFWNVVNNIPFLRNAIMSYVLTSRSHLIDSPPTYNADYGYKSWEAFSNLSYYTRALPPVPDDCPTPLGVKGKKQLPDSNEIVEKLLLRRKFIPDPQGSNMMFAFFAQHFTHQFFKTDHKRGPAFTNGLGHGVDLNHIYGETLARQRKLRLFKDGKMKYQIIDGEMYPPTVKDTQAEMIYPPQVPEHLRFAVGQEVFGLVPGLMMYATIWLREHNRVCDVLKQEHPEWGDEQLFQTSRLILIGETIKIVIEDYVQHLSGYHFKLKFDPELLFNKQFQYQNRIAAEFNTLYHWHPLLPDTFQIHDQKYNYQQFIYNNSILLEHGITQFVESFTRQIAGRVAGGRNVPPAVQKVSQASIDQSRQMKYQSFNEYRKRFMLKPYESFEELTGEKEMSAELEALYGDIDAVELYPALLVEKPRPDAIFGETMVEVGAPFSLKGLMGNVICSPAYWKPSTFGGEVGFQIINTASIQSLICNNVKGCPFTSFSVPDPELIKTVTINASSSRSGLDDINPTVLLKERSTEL
As to the kind of experiment: COX Inhibitor Screening Assay Kit, COX-2 inhibition. In kind it is biochemical. The settings on record: for percentage of enzyme inhibition, COX-2: CDXs 20 µmol/L, mean ± standard deviation, triplicate in two independent days. How it is done: (§1) The effect of CDXs previously obtained in our group as inhibitors of membrane located enzymes that might be involved in inflammatory processes, namely COX-1 and COX-2, was evaluated. Three enantiomeric pairs of CDXs were chosen to study the inhibitory effect of both enantiomers of each pair face to biological targets in order to evaluate potency and enantioselectivity. The effect on COXs activity was studied by spectrofluorimetry using a commercial kit measuring the peroxidation activity of COXs. The kit includes isoenzyme-specific inhibitors for distinguishing COX-1 from COX-2 activities.
(§2) The evaluation of the inhibition of COX-1 and COX-2 by CDXs was conducted using the commercially available COX (ovine/human) Inhibitor Screening Assay Kit (Cayman Chemical, Michigan, MI, USA). Briefly, the assay implies an enzymatic immunoassay based on the competition between prostaglandins (PGs) and a PG-acetylcholinesterase (AChE) conjugate (PG tracer), which is then evaluated by the addition of Ellman’s reagent. All the solutions required for the experiment were prepared according to the manufacturer’s instructions. Each compound was analysed in two independent days, in triplicate. CDX working solutions were prepared in DMSO to a final concentration of 20 µM. […] Absorbance measurements at 412 nm were performed in a Synergy HT microplate reader (Bio-Tek Instruments, Winooski, VT, USA) operated with Gen5 software (Bio-Tek Instruments).

In assay [3] the target is T3, COX-1 (Ovis aries, UniProt P05979).
T3 construct: purchased Cayman Chemical
T3 sequence (P05979 25-600): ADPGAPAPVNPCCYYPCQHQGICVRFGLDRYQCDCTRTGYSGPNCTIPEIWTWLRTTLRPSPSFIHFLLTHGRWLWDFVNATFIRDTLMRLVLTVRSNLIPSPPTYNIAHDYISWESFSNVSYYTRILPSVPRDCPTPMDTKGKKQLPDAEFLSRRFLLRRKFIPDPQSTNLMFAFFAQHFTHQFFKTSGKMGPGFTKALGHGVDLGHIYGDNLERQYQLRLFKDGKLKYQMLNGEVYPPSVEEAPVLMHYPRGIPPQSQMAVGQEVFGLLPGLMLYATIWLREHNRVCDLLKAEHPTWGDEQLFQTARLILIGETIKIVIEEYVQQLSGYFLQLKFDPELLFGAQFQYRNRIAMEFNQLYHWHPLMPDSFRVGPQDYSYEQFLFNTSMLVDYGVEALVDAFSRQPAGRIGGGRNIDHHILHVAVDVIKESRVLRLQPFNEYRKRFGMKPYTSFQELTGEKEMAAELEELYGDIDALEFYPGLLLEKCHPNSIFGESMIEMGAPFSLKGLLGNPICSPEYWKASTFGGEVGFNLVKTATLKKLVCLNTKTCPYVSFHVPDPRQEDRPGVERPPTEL
As to the kind of experiment: COX Inhibitor Screening Assay Kit, COX-1 inhibition. The settings on record: CDXs 20 µmol/L; mean ± standard deviation, triplicate in two independent days. In kind it is biochemical, ovine. How it is done:
as §1, §2

T1 sequence (P02768 25-609): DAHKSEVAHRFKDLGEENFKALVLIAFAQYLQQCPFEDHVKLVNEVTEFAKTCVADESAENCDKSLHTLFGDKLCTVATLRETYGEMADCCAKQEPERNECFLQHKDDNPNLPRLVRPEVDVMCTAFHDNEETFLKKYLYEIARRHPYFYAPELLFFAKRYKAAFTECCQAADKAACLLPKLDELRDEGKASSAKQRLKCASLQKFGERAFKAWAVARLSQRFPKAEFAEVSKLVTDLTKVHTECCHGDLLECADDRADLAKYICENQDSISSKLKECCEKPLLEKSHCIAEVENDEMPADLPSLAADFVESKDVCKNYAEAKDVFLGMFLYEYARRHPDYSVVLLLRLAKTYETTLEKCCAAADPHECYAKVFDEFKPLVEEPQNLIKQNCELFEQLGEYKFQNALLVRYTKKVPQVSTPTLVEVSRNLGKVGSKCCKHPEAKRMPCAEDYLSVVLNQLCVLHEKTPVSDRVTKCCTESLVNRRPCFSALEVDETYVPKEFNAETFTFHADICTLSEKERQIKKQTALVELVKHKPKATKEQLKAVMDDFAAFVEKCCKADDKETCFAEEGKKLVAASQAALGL

Usually Kd stands for the equilibrium constant for the complex coming apart. As to `COc1ccc2c(=O)c3cc(C(=O)N[C@@H](C)CO)ccc3oc2c1` [(S)-(+)-CDX3], in assay [1], the “Ymax, maximum percentage of HSA fluorescence quenching” value (from here on “Ymax, maximum percentage”) stood at 116.2 ± 0.6%; the dissociation constant Kd came out at 31.4 ± 2 µM; the “∆G Binding” value is -2.0 ± 0.2 kcal/mol. Besides, the “percentage of enzyme inhibition, COX-2” value in assay [2] turned out to be 93.4 ± 11.4%. Besides, the “percentage of enzyme inhibition, COX-1” value in assay [3] is on record as 91.7 ± 10.7%.
Turning to `COc1ccc2c(=O)c3cc(C(=O)N[C@@H](CO)c4ccccc4)ccc3oc2c1` [(R)-(+)-CDX1], in assay [1], the “Ymax, maximum percentage” value was 109.6 ± 1.6% and the dissociation constant (Kd) was 61.8 ± 6.5 µM. The “percentage of enzyme inhibition, COX-2” value in assay [2] worked out at 84.7 ± 5.7%. In assay [3], the “percentage of enzyme inhibition, COX-1” value came to 79.6 ± 5.0%.
The like results for `COc1ccc2c(=O)c3cc(C(=O)N[C@H](C)CO)ccc3oc2c1` [(R)-(−)-CDX3] were, in that order, 113.2 ± 1.4%, 26.4 ± 1.2 µM, 75.1 ± 7.2% and 75.2 ± 9.0%.
For `COc1ccc2c(=O)c3cc(C(=O)N[C@H](CO)c4ccccc4)ccc3oc2c1` [(S)-(−)-CDX1] the same measures were 105.3 ± 0.4%, 23.6 ± 0.8 µM, 80.1 ± 12.8% and 87.6 ± 2.1%.
Take `COc1ccc2c(=O)c3cc(C(=O)NC(CO)c4ccccc4)ccc3oc2c1` (stereo not shown) [CDX1]: in assay [1] ((S)-enantiomer higher affinity than (R)-enantiomer), the “difference in HSA binding affinity between (S)- and (R)-enantiomers” value is “ca. 2.6 fold”.
With `COc1ccc2c(=O)c3cc(C(=O)N[C@H](CO)C(C)C)ccc3oc2c1` [(S)-(−)-CDX2], in assay [1], the “Ymax, maximum percentage” value was 107.4 ± 5.4% and the Kd amounted to 24.7 ± 1.1 µM. Moreover, the “percentage of enzyme inhibition, COX-2” value in assay [2] came to 85.7 ± 4.5%. In addition, the “percentage of enzyme inhibition, COX-1” value in assay [3] worked out at 82.9 ± 5.2%.
In the case of `COc1ccc2c(=O)c3cc(C(=O)N[C@@H](CO)C(C)C)ccc3oc2c1` [(R)-(+)-CDX2], in assay [1], the “Ymax, maximum percentage” value is listed as 108.2 ± 0.2%; the dissociation constant (Kd) worked out at 29.2 ± 0.9 µM; the “∆G Binding” value is -2.0 ± 0.1 kcal/mol. For the same molecule, in assay [2], the “percentage of enzyme inhibition, COX-2” value is 73.2 ± 0.4%. The “enzyme-type selectivity COX-2 vs COX-1” value in assay [2] (paired t-test, p < 0.05) was “more active at inhibiting COX-2 than COX-1”. Besides, the “percentage of enzyme inhibition, COX-1” value in assay [3] was found to be 66.8 ± 1.6%.
